For one assay, the system named is Bcl-2. Description: Western-blot analysis of UV-induced down-regulation of Bcl-2 expression in HaCaT cells. The following applies: 60 mJ/cm^2 UVB. It is filed as cell-based, Human. How it is done:
(§1) Human keratinocyte HaCaT cell line was provided by Dr. N. E. Fusenig (Deutsches Krebsforschungszentrum(DKFZ), Heidelberg, Germany) and cultured in DMEM (Dulbecco's modified Eagle's medium, Gibco 1210-0038) supplemented with 10% fetal bovine serum. Cultures were incubated at 37° C., in humidified air with 5% CO2.
Cell lines cultured in Step 1 were treated with trypsin to give a single-cell suspension and seeded into 6-well microplates at […] per well, then cultured for 24 hours. Subsequently, the culture medium was refreshed with serum-free DMEM and cells were cultured for another 24 hours. The microplates were then treated with 2 μM ginsenoside F1; 10 μM EGCG; a combination of 2 μM ginsenoside F1 and 10 μM EGCG; 5 μM ginsenoside F1; and 50 μM EGCG, respectively. Ginsenoside F1 was dissolved in 100% ethanol at a 1/1000-fold concentration to the medium and EGCG (Sigma) was dissolved in DMSO at a 1/1000-fold concentration to the medium. […]
24 hours after UV irradiation, cells treated with each compound or untreated were washed with PBS and harvested by treating with trypsin. […] Supernatants were collected by centrifugation at 15,000×g for 10 minutes at 4° C. and protein concentrations were determined using BIO-Rad Protein Dye Reagent™. […] The bands on the film were scanned using PowerLook 2100 XL (UMAX) and analyzed with ImageMaster 2D Elite software (Amersham Biosciences).

The test system of the next assay is HaCaT cells. Description: MTT-reduction assay: antiapoptotic effect against UV-induced apoptosis in HaCaT cells. The following applies: 60 mJ/cm^2 UVB; for UV-caused apoptotic cell population compared with untreated control cells: 24 hours after UV irradiation. It is filed as cell-based, Human. As for the experimental part: as §1
Cell lines cultured in Step 1 were treated with trypsin to give a single-cell suspension and seeded into a 6-well microplate at 2×10^5 cells per well, then cultured for 24 hours. Subsequently, the culture medium was refreshed with serum-free DMEM and cells were cultured for another 24 hours. The microplate was then treated with 2 μM ginsenoside F1; 10 μM EGCG; a combination of 2 μM ginsenoside F1 and 10 μM EGCG; 5 μM ginsenoside F1; and 50 μM EGCG in separate wells.
For reference, ginsenoside F1 was dissolved in 100% ethanol at a 1/1000-fold concentration to the medium and EGCG (Sigma) was dissolved in dimethyl sulfoxide (DMSO) at a 1/1000-fold concentration to the medium, and then added at the required amount to the culture mediums.
After 24-hour treatment of each test sample, each microplate was washed with phosphate buffered saline (PBS) and exposed to 60 mJ/cm^2 of UVB in the presence of PBS. PBS was then removed and the culture medium was refreshed with a medium containing each compound at the corresponding concentration. As a control, untreated cells were cultured in the same way.
24 hours after UV irradiation, to the microplates treated with each compound or untreated was added 3-(4,5-dimethyl thiazol-2-yl)-2,5-diphenyltetrazolium bromide (MTT, Sigma) solution, and then the cells were cultured at 37° C. for 4 hours. DMSO was added and dissolved completely. The optical density (OD) of formazan formed at 540 nm was measured using an ELISA reader (Thermo Max, Molecular Devices Co.). Cell viability in each test group was evaluated as a relative value, considering OD of untreated control cells as 100%.
(In general: Tetrazolium dyes change colour on reduction, which living cells bring about.)

The structures appear in SMILES notation.

Consider `O=C(O[C@@H]1Cc2c(O)cc(O)cc2O[C@@H]1c1cc(O)c(O)c(O)c1)c1cc(O)c(O)c(O)c1` [EGCG, (−)epigallocatechin-3-gallate], for which, in the assay with Bcl-2 (10 μM EGCG alone), the “Bcl-2 expression compared with the untreated control group” value is “no difference”. The “UV-caused apoptotic cell population compared with untreated control cells” value in the assay on HaCaT cells (10 μM EGCG alone) is listed as “no difference”. Besides, the “antiapoptotic effect relative to combined treatment (2 μM ginsenoside F1 and 10 μM EGCG)” value in the assay with HaCaT cells (50 μM EGCG alone) is recorded as “similar”.

As to `CC(C)=CCC[C@](C)(O[C@@H]1O[C@H](CO)[C@@H](O)[C@H](O)[C@H]1O)[C@H]1CC[C@]2(C)[C@@H]1[C@H](O)C[C@@H]1[C@@]3(C)CC[C@H](O)C(C)(C)[C@@H]3[C@@H](O)C[C@]12C` [ginsenoside F1, 20-O-β-D-glucopyranosyl-20(S)-protopanaxatriol], the “Bcl-2 expression compared with the untreated control group” value with Bcl-2 (2 μM ginsenoside F1 alone) is “no difference”. For the same molecule, the “UV-caused apoptotic cell population compared with untreated control cells” value in the assay on HaCaT cells (2 μM ginsenoside F1 alone) is recorded as “no difference”. Also, the “antiapoptotic effect relative to combined treatment (2 μM ginsenoside F1 and 10 μM EGCG)” value in the assay on HaCaT cells (5 μM ginsenoside F1 alone) is “similar”.

For the origin of these results see patent US20080280838A1, “Composition Containing Ginsenoside F1 and Egcg for Preventing Skin Damage” (Amorepacific Corporation, priority 2004, published 2008).
